According to PubChem BioAssay (NCI):
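Interpolation was linear, between the two tested concentrations surrounding the appropriate level; five concentrations were tested over 48 hours in 96-well plates. GI50: concentration for 50% inhibition of growth. At the TGI there is no net growth.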

Key:
Test in all cases: NCI tumour cell line growth inhibition, 48 h
786-0 renal = system: 786-0 renal
A498 renal = system: A498 renal
ACHN renal = system: ACHN renal
BT-549 breast = system: BT-549 breast
CAKI-1 renal = system: CAKI-1 renal
CCRF-CEM leukemia = system: CCRF-CEM leukemia
COLO 205 colon = system: COLO 205 colon
DU-145 prostate = system: DU-145 prostate
EKVX NSCLC = system: EKVX NSCLC
HCC-2998 colon = system: HCC-2998 colon
HCT-116 colon = system: HCT-116 colon
HCT-15 colon = system: HCT-15 colon
HL-60(TB) leukemia = system: HL-60(TB) leukemia
HOP-62 NSCLC = system: HOP-62 NSCLC
HOP-92 NSCLC = system: HOP-92 NSCLC
HS 578T breast = system: HS 578T breast
HT29 colon = system: HT29 colon
IGROV1 ovarian = system: IGROV1 ovarian
K-562 leukemia = system: K-562 leukemia
KM12 colon = system: KM12 colon
LOX IMVI melanoma = system: LOX IMVI melanoma
M14 melanoma = system: M14 melanoma
MALME-3M melanoma = system: MALME-3M melanoma
MCF7 breast = system: MCF7 breast
MDA-MB-231 breast = system: MDA-MB-231 breast
MDA-MB-435 = system: MDA-MB-435
MOLT-4 leukemia = system: MOLT-4 leukemia
NCI-H226 lung = system: NCI-H226 lung

## COc1cccc2c1C(=O)c1c(O)c3c(c(O)c1C2=O)CC(O)(/C(C)=N/NC(=O)CCCCC(=O)N/N=C(\C)C1(O)Cc2c(O)c4c(c(O)c2C(OC2CC(N)C(O)C(C)O2)C1)C(=O)c1c(OC)cccc1C4=O)CC3OC1CC(N)C(O)C(C)O1 (centres undefined)
786-0 renal
  GI50: 0.185 µM
  TGI: 1.94 µM
A498 renal
  GI50: 0.567 µM
  TGI: 1.34 µM
ACHN renal
  GI50: 0.188 µM
  TGI: 1.69 µM
BT-549 breast
  GI50: 0.511 µM
  TGI: 4.35 µM
CAKI-1 renal
  GI50: 0.265 µM
  TGI: 3.23 µM
CCRF-CEM leukemia
  GI50: 0.207 µM
  TGI: 18.4 µM
COLO 205 colon
  GI50: 0.0877 µM
  TGI: 0.44 µM
DU-145 prostate
  GI50: 0.163 µM
  TGI: 1.93 µM
EKVX NSCLC
  GI50: 0.418 µM
  TGI: 21 µM
HCC-2998 colon
  GI50: 0.318 µM
  TGI: 1.14 µM
HCT-116 colon
  GI50: 0.116 µM
HCT-15 colon
  GI50: 2.89 µM
  TGI: > 50 µM
HL-60(TB) leukemia
  GI50: 0.159 µM
  TGI: 2.38 µM
HOP-62 NSCLC
  GI50: 0.218 µM
  TGI: 1.93 µM
HOP-92 NSCLC
  GI50: 0.137 µM
  TGI: 2.45 µM
HS 578T breast
  GI50: 0.263 µM
  TGI: 2.83 µM
HT29 colon
  GI50: 0.181 µM
  TGI: > 50 µM
IGROV1 ovarian
  GI50: 0.906 µM
  TGI: > 21 µM
K-562 leukemia
  GI50: 0.222 µM
  TGI: > 23.3 µM
KM12 colon
  GI50: 0.361 µM
  TGI: 6.12 µM
LOX IMVI melanoma
  GI50: 0.0803 µM
M14 melanoma
  GI50: 0.225 µM
  TGI: 1.32 µM
MALME-3M melanoma
  GI50: 0.146 µM
  TGI: 0.973 µM
MCF7 breast
  GI50: 0.0459 µM
  TGI: > 50 µM
MDA-MB-231 breast
  GI50: 0.749 µM
  TGI: > 50 µM
MDA-MB-435
  GI50: 0.324 µM
  TGI: 2.01 µM
MOLT-4 leukemia
  GI50: 0.0605 µM
  TGI: 0.694 µM
NCI-H226 lung
  GI50: 0.159 µM
  TGI: 1.23 µM
